Experimental data reported in PMC9264488, “Potentiation of endocannabinoids and other lipid amides prevents hyperalgesia and inflammation in a pre-clinical model of migraine” (The Journal of Headache and Pain, 2022).
Where two headings read alike, the source gives them in different places.

Tests used:
[1] = target: T1, fatty acid amide hydrolase (r-FAAH) (Rattus norvegicus, UniProt P97612); experiment: biochemical
[2] = target: T1, fatty acid amide hydrolase (r-FAAH)

T1 sequence (P97612 whole entry): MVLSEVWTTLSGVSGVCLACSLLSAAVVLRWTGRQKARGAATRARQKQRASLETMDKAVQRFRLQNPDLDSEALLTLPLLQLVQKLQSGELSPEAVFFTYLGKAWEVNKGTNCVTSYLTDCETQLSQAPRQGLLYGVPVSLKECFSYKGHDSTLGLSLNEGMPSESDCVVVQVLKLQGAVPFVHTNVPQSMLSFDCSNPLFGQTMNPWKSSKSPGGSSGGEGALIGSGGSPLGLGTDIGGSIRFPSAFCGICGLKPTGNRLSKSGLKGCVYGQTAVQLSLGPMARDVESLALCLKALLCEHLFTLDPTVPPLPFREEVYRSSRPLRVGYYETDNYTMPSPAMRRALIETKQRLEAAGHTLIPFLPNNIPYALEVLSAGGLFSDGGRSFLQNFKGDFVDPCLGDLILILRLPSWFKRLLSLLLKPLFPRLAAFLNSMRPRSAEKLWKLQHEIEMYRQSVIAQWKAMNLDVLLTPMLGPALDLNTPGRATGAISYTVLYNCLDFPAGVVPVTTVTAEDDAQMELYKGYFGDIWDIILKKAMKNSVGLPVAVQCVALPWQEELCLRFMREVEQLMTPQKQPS

SMILES | IC50 [1] | IC50 [2]
NC(=O)c1cccc(-c2cc(OC(=O)NC3CCCCC3)ccc2OC(F)F)c1 [ARN14280, [3-(3-carbamoylphenyl)-4-(difluoromethoxy)phenyl] N-cyclohexylcarbamate] | 1.5 ± 0.3 nM | 
CNC(=O)c1cccc(-c2cc(OC(=O)NC3CCCCC3)ccc2F)c1 [ARN14633, [4-fluoro-3-[3-(methylcarbamoyl)phenyl]phenyl] N-cyclohexylcarbamate] |  | 1.4 ± 0.3 nM
